Laboratory results from patent publication US10336768B2, “Pyrimidine compounds and methods using the same” (Yuma Therapeutics, Inc., priority 2014, dated 2019).

Key:
[1] = test system: SH-SY5Y-hTAU441 cells; assay: Cytotoxicity assay (MTT); type: cell-based; settings: FIG. 6A
Experimental: SH-SY5Y-hTAU441 cell viability was determined using the MTT assay. […] SH-SY5Y cell viability may also be measured after 24 and 48 h with the CellTiter-Glo® assay that measures ATP-levels. In addition, cytotoxicity may be assessed using the Celigo® with live cell microscopic imaging and a GE InCell Analyzer 2000 to measure multiple outcomes including apoptosis markers, membrane permeability, and mitochondrial activity.

[2] = test system: P-gp (MDR1); assay: MDR1-MDCK permeability assay; type: in vitro ADME; settings: dog, read-out: B→A/A→B asymmetry
Text: Compounds may be assessed in MDR1-MDCK permeability assay or Caco-2 permeability assay to determine their permeability. Apical (A) to basal (B) permeability >3×10^−6 cm/sec and B→A/A→B asymmetry <3 for a compound are considered acceptable predictors of brain penetration, and compounds having such properties are unlikely to be P-glycoprotein (P-gp) substrates. Compound 20 has shown excellent permeability in MDR1-MDCK assay (A-B=28×10^−6 cm/s) with low asymmetry (B→A/A→B asymmetry=0.9).

Nc1nc(-c2c(Cl)cc(Cl)c3c2CCO3)c2[nH]ccc2n1 [compound 20, 4-(5,7-Dichloro-2,3-dihydrobenzofuran-4-yl)-5H-pyrrolo[3,2-d]pyrimidin-2-amine] was tested, and the cell viability [1] was “did not affect cell viability” and the efflux ratio [2] was 0.9.
